From patent US11065202B2, “Multi-component nanochains” (CASE WESTERN RESERVE UNIVERSITY, priority 2011, dated 2021) come the findings set out here.

Experiment [1] relates to 13762 MAT B III tumor model. Description: Tumor growth and survival study. To be noted: single treatment 0.5 mg/kg DOX, without RF. The class given is in vivo, rats. From the text:
The rat tumor model was established by a subcutaneous injection of 1×10^6 13762 MAT B III cells into the right flank of female Fisher rats. Mouse tumors were generated orthotopically in female BALB/c mice by injection of 0.5×10^6 4 T1 cells into the inguinalmammary fat pad. Once the appropriate tumor size was established (diameter ˜0.5 cm), the animals were used in the in vivo studies. Each cell line required different lag times to produce a tumor lesion of about 0.5 cm in size (5 and 8 days for the MAT B III and 4T1 model, respectively). Based on our prior experience, we chose this tumor size as the starting point of the animal studies, since the primary tumor mass is sufficiently large to present angiogenic, necrotic and invasive areas, and therefore may be more informative and relevant to human disease.
Once the appropriate tumor sizes were established (diameter ˜0.5 cm), the rat tumor model was IV injected with DOX-NC at a dose of 0.5 mg/kg DOX. After 24 hours from injection, animals were exposed to the RF field operated as described previously. Following the same dose and schedule, control groups included animals treated with DOX-NC (but no RF), only RF, liposomal DOX, liposomal DOX with RF, free DOX, and saline. […] The tumor growth was monitored every day using caliper measurements. […] Time of death was determined to be the following day.

A further experiment deals with MAT B III tumors. Description: Histological evaluation of apoptosis (TUNEL), rat model. The class given is in vivo, rats. To be noted: 5 mg/kg, IV. As for the experimental part:
The rat MAT B III and the mouse 4T1 models were used in the histological studies. Animals treated with DOX-NC were exposed to the RF field 24 hours post-injection. After 24 hours from the application of the RF field, the animals were anesthetized with an IP injection of ketamine/xylazine and transcardially perfused with heparinized PBS followed by 4% paraformaldehyde in PBS. Controls included animals treated with DOX-NC (no RF), 35-nm liposomal DOX (with RF), 100-nm liposomal DOX (with RF), free DOX, RF alone and saline. The tumors were explanted and post-fixed overnight in 4% paraformaldehyde in PBS. The fixed tumors were soaked in 30% sucrose (w/v) in PBS at 4° C. for cryosectioning. Serial sections of 12 μm thickness were collected using a cryostat (Leica CM 300).
To visualize the tumor microvasculature, the tissue slices were immunohistochemically stained for the specific endothelial antigen CD31 (BD Biosciences, Pharmingen). The tissues were also stained with the nuclear stain DAPI. […] Direct fluorescence (red) imaging of tumor sections were performed for imaging DOX. Apoptosis was detected using a TUNEL assay (Promega). […] The total number of cells was counted based on the nuclear stain (DAPI) in multiple histological sections per tumor (minimum 20), whereas apoptotic cells were quantified based on TUNEL-stained nuclei.

`COc1cccc2c1C(=O)c1c(O)c3c(c(O)c1C2=O)C[C@@](O)(C(=O)CO)C[C@@H]3O[C@H]1C[C@H](N)[C@H](O)[C@H](C)O1` [free DOX, doxorubicin]: the tumor growth entry in experiment [1] is listed as “failed to produce any therapeutic benefits”. Moreover, the “apoptotic cells in tumor (visual inspection)” value in the experiment on MAT B III tumors is “substantial number of apoptotic cells”.
